Test results: US7279183B2, “Method of reducing thrombosis and complications after arterial angioplasty using stent coated with magnesium-based compound” (Cedars-Sinai Medical Center, priority 2001, dated 2007)
Read-outs that look alike come from different tables or passages of the source.

How the values were obtained:
[1] = complete blood cell count; conditions: data not shown
in-stent thrombosis = tested on: in-stent thrombosis
Experimental: (§1) Twenty one low-risk patients undergoing non-acute percutaneous coronary intervention with stent implantation received a two gm bolus of intravenous MgSO4 followed by a 1.5 gm/hour infusion for four hours and a 1 gm/hour infusion for the next eight hours. […] The preset primary endpoints for this experiment were: acute thrombotic occlusion and need for platelet IIb/IIIa inhibitors bailout, death, myocardial infarction, recurrent ischemia and need for urgent revascularization at 48 hours and 30 days. The secondary safety endpoints included hypotension, bradycardia, bleeding complications and heart block within the first 24 hours.

[2] = Experimental: as §1
platelets = conditions: cited from earlier work
[3] = bleeding time from thigh incision; type: in vivo, swine
Experimental: Bleeding time is defined as the time from the creation of an incision to the point where bleeding from the incision ceases. In the experiment according to one embodiment of the present invention discussed herein, bleeding time was measured from an incision on the ventral surface of the thigh with a No. 11 surgical knife.

[4] = serum magnesium level, magon dye method; type: in vivo, swine; conditions: in words, FIG. 5
Experimental: Serum magnesium levels for the test subjects were measured spectrophotometrically using the magon dye method. See Elm R J, Determination of serum magnesium concentration by clinical laboratories, […], 1991-92:60-6.

platelet aggregation = test: whole blood aggregometry, agonist-induced platelet aggregation; type: cell-based, swine; conditions: for platelet aggregation: 3 pigs
Experimental: Thirty minutes after administration of the heparin (in the heparin alone) or magnesium, 3 mL venous blood was collected in a siliconized test tube containing 0.3 mL of 0.129 molar sodium citrate or sodium heparin (Becton Dickinson Vacutainer System). Whole blood aggregometry (Chronolog Corp.) was used to measure collagen (2 and 5 μg/mL)- and Adenosine diphosphate (2.5 μM)-induced platelet aggregation. Aggregation was expressed as maximal increase in electrical impedance measured in ohms at 6 minutes after the addition of agonist.

[5] = magnesium sulfate intravenously, ANOVA
Experimental: The graph in FIG. 3 was generated by taking between 10 and 14 observations at each time point. The MABP was measured in millimeters of mercury (mmHg). The heart rate was measured in beats per minute (BPM).

[6] = activated clotting time (ACT), Hemochron 400; type: in vivo, swine
Experimental: In the experiment discussed herein that was conducted according to one embodiment of the present invention, ACT was determined using a Hemochron 400 (International Technidyne Corp.) machine in standard fashion. See Makkar R R, Litvack F, Eigler N L, Nakamura M, Ivey P A, Forrester J S, Shah P K, Jordan R E, Kaul S, Effects of GP IIb/IIIa Receptor Monoclonal Antibody (7E3), Heparin, and Aspirin in an Ex Vivo Canine Arteriovenous Shunt Model of Stent Thrombosis, Circulation, 1997; 95(4): 1015-1021; and Makkar R R, Eigler N L, Kaul S, Nakamura M, Forrester J S, Herbert J-M, Litvack F I, Effects of clopidogrel, aspirin and combined therapy in a porcine ex vivo model of high-shear induced stent thrombosis, Eur Heart J, 1998; 19:1538-1546.

[7] = tested on: acute platelet-dependent stent thrombosis; test: ex-vivo porcine arteriovenous shunt model of high-shear stent thrombosis (thrombus weight); type: in vivo, swine
Experimental: An experiment according to one embodiment of the present invention was performed using an ex-vivo model that primarily examines shear-mediated, platelet-dependent thrombus formation. This experiment allowed for the evaluation of the effects of magnesium, and the time-dependent nature thereof, on acute platelet-dependent stent thrombosis in an ex-vivo porcine arteriovenous shunt model of high-shear blood flow.
(§2) Experiments were performed in 10 swine weighing 25 to 30 kg. […] The right carotid artery and jugular vein were isolated and cannulated with 8F sheaths to establish an extracorporeal circuit as described previously. […] Arterial blood gases and pH were monitored periodically and maintained at normal levels by adjustment of the ventilation rate and tidal volume. Invasive arterial pressure measurement, oxygen saturation, ECG, and rectal temperature were monitored continuously. A thermostatically controlled blanket was used to maintain temperature at 37° C. Venous blood was collected for baseline platelet aggregation, complete blood cell count, and activated clotting time (ACT) measurements.
All animals received heparin at a dose of 10 U/kg as a bolus before the study to prevent thrombotic occlusion of catheters and tubing. […]

[8] = tested on: acute platelet-dependent stent thrombosis; conditions: 10 U/kg bolus, average of 200 U per swine; cited from earlier work
[9] = in vivo
Experimental: as §2
All animals received heparin at a dose of 10 U/kg as a bolus before the study to prevent thrombotic occlusion of catheters and tubing. […] At the conclusion of the experiment, blood was collected for complete blood cell counts, the carotid artery and jugular vein were ligated, and the animals were allowed to recover from anesthesia before being returned to the vivarium. Each animal was studied twice with a minimum interval of 2 weeks between each experiment.
At the end of each treatment, control stents were perfused to ensure return of stent thrombus weights towards baseline pre-treatment values. Effects on thrombus weight (TW), whole-blood platelet aggregation (PA), bleeding time (BT), activated clotting time (ACT), serum magnesium level, and complete blood count (CBC) were quantified at various time points as shown in the protocol schematic. Mean arterial blood pressure (MABP) and heart rate (HR) were monitored and recorded throughout the protocol.

[10] = in words, beyond the heparin effect

In the case of `O=S(=O)([O-])[O-].[Mg+2]` [Mg, magnesium sulfate], the effect on hematocrit [1] is reported as “no significant effects”, the “effect on platelet counts” value [1] is reported as “no significant effects” and the “effect on white blood cell counts” value [1] is reported as “no significant effects”. The “GP IIb/IIIa inhibitors bailout” value (in-stent thrombosis; 21 patients) was “no case”, the death (in-stent thrombosis; 21 patients) was “not seen” and the myocardial infarction (in-stent thrombosis; 21 patients) was “not seen”. The urgent revascularization (in-stent thrombosis; 21 patients) was “not seen”, the “coronary artery blood flow at end of intervention” value (in-stent thrombosis; all cases, 21 patients) was “normal coronary artery blood flow (TIMI 3 flow)” and the “hemostatic or hemodynamic complications” value (in-stent thrombosis; human subjects) was “without any hemostatic or hemodynamic complications”. For the same compound, the “effect on heart rate” value ([2]; patients, IV MgSO4) was “did not have a significant effect”, the “effect on mean arterial blood pressure” value ([2]; patients, IV MgSO4) was “did not have a significant effect” and the serum magnesium level ([2]; post-bolus (2 gm IV MgSO4), baseline 2.1±0.3, P<0.0001) was 3.2 ± 0.3 mg/dL. The serum magnesium level ([2]; post-infusion (total 16 gm)) was 3.5 ± 0.8 mg/dL, the “concentration at which anti-adhesive effect may occur” value (platelets) was under 4 mEq/L and the “concentration at which anti-aggregatory effect may occur” value (platelets) was over 5 mEq/L. The “effect on bleeding time” value [3, 10] was “no significant effects”, the “serum magnesium levels compared to control” value [4] was “higher” and the “effect on platelet aggregation” value (platelet aggregation; ADP (2.5 μM), data not shown) was “no effect”. The whole-blood platelet aggregation (platelet aggregation; FIG. 5, 5 μg/mL collagen, with addition of magnesium, from 25±3, not significant) was 21±5 ohms, the “platelet aggregation (maximal increase in electrical impedance)” value (platelet aggregation; Mg-late alone, 6 minutes after agonist, baseline 25±3) was 22±3 ohms and the “platelet aggregation (maximal increase in electrical impedance)” value (platelet aggregation; Mg-treated animals, >40 minutes post-bolus (Mg-late)) was 21.0±5 ohms. The “platelet aggregation (maximal increase in electrical impedance)” value (platelet aggregation; Mg-treated animals, within 20 minutes post-bolus (Mg-early)) was 23±4 ohms, the platelet aggregation (platelet aggregation; citrate-stabilized blood, post-Mg (25±3 pre)) was 22±3 ohms and the “effect on platelet aggregation” value (platelet aggregation; collagen 2 μg/ml, data not shown) was “no effect”. The platelet aggregation (platelet aggregation; heparin-stabilized samples, post-Mg (26±2 pre)) was 27±2 ohms, the “effect on platelet aggregation” value (platelet aggregation; in words, listed as Magnesium) was “no significant effects” and the “effect on platelet aggregation” value (platelet aggregation; in words, listed as magnesium) was “no significant effect”. For the same compound, the “effect on heart rate” value ([5]; listed as Magnesium) was “no significant effects”, the “effect on mean arterial blood pressure (MABP)” value ([5]; listed as Magnesium) was “no significant effects” and the “effect on heart rate” value ([5]; listed as magnesium) was “no statistically significant effects”. For the same compound, the “effect on mean arterial blood pressure (MABP)” value ([5]; listed as magnesium) was “no statistically significant effects” and the “effect on activated clotting time (ACT)” value [6, 10] was “no significant effects”.

With heparin the bleeding time ([3]; in vivo) was 5.3±0.6, the “effect on thrombus formation (FIG. 2(a))” value ([7]; given alone, magnesium both early and late groups) was “reduce thrombus formation slightly” and the “reduction of stent thrombus weight (TW)” value ([7]; heparin alone, 50 U/kg IV bolus then 25-50 U/kg/hr, versus pre-treatment, mean±SD) was 48±16%. The “platelet aggregation (maximal increase in electrical impedance)” value (platelet aggregation; heparin alone, 6 minutes after agonist, baseline 25±3) was 24±6 ohms, the “effect on thrombus formation at high-shear conditions” value [8] was “negligible effects” and the effect on hematocrit [9] was “no significant effects”. The “effect on platelet counts” value [9] was “no significant effects”, the “effect on white blood cell counts” value [9] was “no significant effects” and the ACT ([6]; prolonged from 109±8 seconds, P<0.01) was 185 ± 36 s.
